Measurements reported in US11053204B2, “Pyrimidinyloxy benzene derivatives as herbicides” (FMC Corporation, priority 2015, dated 2021).

Tests used:
Assay type in all cases: in vivo
soybean (Glycine max) [1] = test: Test C preemergence, plant response rating; details: Preemergence
In short: (§1)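 Visual injury score, 0 = no effect, 100 = complete control, assigned against untreated controls after 13 to 15 d in the greenhouse. Compounds were applied in a surfactant-containing non-phytotoxic solvent mix, preemergence to seeded loam/sand or silt loam soil, or postemergence to 1- to 4-leaf plants (2 to 18 cm).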

[2] = test system: blackgrass (Alopecurus myosuroides); test: Test C preemergence, plant response rating; details: Preemergence
In short: as §1

[3] = test system: foxtail, giant (giant foxtail, Setaria faberii); test: Test C preemergence, plant response rating; details: Preemergence
In short: as §1

[4] = test system: velvetleaf (Abutilon theophrasti); test: Test C preemergence, plant response rating; details: Preemergence
In short: as §1

[5] = test system: waterhemp (common waterhemp, Amaranthus rudis); test: Test C preemergence, plant response rating; details: Preemergence
In short: as §1

[6] = test system: lambsquarters (Chenopodium album); test: Test C preemergence, plant response rating; details: Preemergence
In short: as §1

[7] = test system: ryegrass, Italian (Italian ryegrass, Lolium multiflorum); test: Test C preemergence, plant response rating; details: Preemergence
In short: as §1

[8] = test system: morningglory (Ipomoea coccinea); test: Test C preemergence, plant response rating; details: Preemergence
In short: as §1

[9] = test system: nutsedge, yellow (yellow nutsedge, Cyperus esculentus); test: Test C preemergence, plant response rating; details: Preemergence
In short: as §1

[10] = test system: crabgrass, large (large crabgrass, Digitaria sanguinalis); test: Test C preemergence, plant response rating; details: Preemergence
In short: as §1

corn (Zea mays) [11] = test: Test C preemergence, plant response rating; details: Preemergence
In short: as §1

[12] = test system: wheat (winter wheat, Triticum aestivum); test: Test C preemergence, plant response rating; details: Preemergence
In short: as §1

[13] = test system: oilseed rape (Brassica napus); test: Test C preemergence, plant response rating; details: Preemergence
In short: as §1

soybean (Glycine max) [14] = test: Test C postemergence, plant response rating; details: for Plant response rating, Soybean: scale 0 to 100; for Soybean plant response rating: scale 0 to 100 (0 no effect, 100 complete control)
In short: as §1

[15] = test system: galium (catchweed bedstraw, Galium aparine); test: Test C postemergence, plant response rating; details: for Plant response rating, Galium: scale 0 to 100; for Galium plant response rating: scale 0 to 100 (0 no effect, 100 complete control)
In short: as §1

[16] = test system: foxtail, giant (giant foxtail, Setaria faberii); test: Test C postemergence, plant response rating; details: for Plant response rating, Foxtail, Giant: scale 0 to 100; for Foxtail, Giant plant response rating: scale 0 to 100 (0 no effect, 100 complete control)
In short: as §1

[17] = test system: waterhemp (common waterhemp, Amaranthus rudis); test: Test C postemergence, plant response rating; details: for Plant response rating, Waterhemp: scale 0 to 100; for Waterhemp plant response rating: scale 0 to 100 (0 no effect, 100 complete control)
In short: as §1

kochia (Kochia scoparia) = test: Test C postemergence, plant response rating; details: for Plant response rating, Kochia: scale 0 to 100; for Kochia plant response rating: scale 0 to 100 (0 no effect, 100 complete control)
In short: as §1

[18] = test system: crabgrass, large (large crabgrass, Digitaria sanguinalis); test: Test C postemergence, plant response rating; details: for Plant response rating, Crabgrass, Large: scale 0 to 100; for Crabgrass, Large plant response rating: scale 0 to 100 (0 no effect, 100 complete control)
In short: as §1

corn (Zea mays) [19] = test: Test C postemergence, plant response rating; details: for Plant response rating, Corn: scale 0 to 100; for Corn plant response rating: scale 0 to 100 (0 no effect, 100 complete control)
In short: as §1

[20] = test system: oilseed rape (Brassica napus); test: Test C postemergence, plant response rating; details: for Plant response rating, Oilseed Rape: scale 0 to 100; for Oilseed Rape plant response rating: scale 0 to 100 (0 no effect, 100 complete control)
In short: as §1

## CCCC(=O)c1c(Br)cccc1Oc1ncc(Cl)cn1 [Compound 75]
Soybean (Glycine max) [1]; 125 g ai/ha, scale of 0 to 100
  Plant response rating, Soybean: 50
Soybean (Glycine max) [1]; 16 g ai/ha, scale 0 to 100
  Plant response rating, Soybean: 0
Soybean (Glycine max) [1]; 31 g ai/ha, scale 0 to 100
  Plant response rating, Soybean: 0
Soybean (Glycine max) [1]; 62 g ai/ha, scale 0 to 100
  Plant response rating, Soybean: 10
[2]; 62 g ai/ha, scale of 0 to 100
  Plant response rating, Blackgrass: 80
[2]; 125 g ai/ha, scale of 0 to 100
  Plant response rating, Blackgrass: 75
[2]; 16 g ai/ha, scale 0 to 100
  Plant response rating, Blackgrass: 0
[2]; 31 g ai/ha, scale 0 to 100
  Plant response rating, Blackgrass: 5
[3]; 62 g ai/ha, scale of 0 to 100
  Plant response rating, Foxtail, Giant: 65
[3]; 125 g ai/ha, scale of 0 to 100
  Plant response rating, Foxtail, Giant: 98
[3]; 16 g ai/ha, scale 0 to 100
  Plant response rating, Foxtail, Giant: 0
[3]; 31 g ai/ha, scale 0 to 100
  Plant response rating, Foxtail, Giant: 25
[4]; 125 g ai/ha, scale of 0 to 100
  Plant response rating, Velvetleaf: 25
[4]; 16 g ai/ha, scale 0 to 100
  Plant response rating, Velvetleaf: 0
[4]; 31 g ai/ha, scale 0 to 100
  Plant response rating, Velvetleaf: 5
[4]; 62 g ai/ha, scale 0 to 100
  Plant response rating, Velvetleaf: 35
[5]; 125 g ai/ha, scale of 0 to 100
  Plant response rating, Waterhemp: 98
[5]; 16 g ai/ha, scale 0 to 100
  Plant response rating, Waterhemp: 75
[5]; 31 g ai/ha, scale 0 to 100
  Plant response rating, Waterhemp: 95
[5]; 62 g ai/ha, scale 0 to 100
  Plant response rating, Waterhemp: 98
[6]; 125 g ai/ha, scale of 0 to 100
  Plant response rating, Lambsquarters: 70
[6]; 16 g ai/ha, scale 0 to 100
  Plant response rating, Lambsquarters: 0
[6]; 31 g ai/ha, scale 0 to 100
  Plant response rating, Lambsquarters: 10
[6]; 62 g ai/ha, scale 0 to 100
  Plant response rating, Lambsquarters: 35
[7]; 125 g ai/ha, scale of 0 to 100
  Plant response rating, Ryegrass, Italian: 15
[7]; 16 g ai/ha, scale 0 to 100
  Plant response rating, Ryegrass, Italian: 0
[7]; 31 g ai/ha, scale 0 to 100
  Plant response rating, Ryegrass, Italian: 5
[7]; 62 g ai/ha, scale 0 to 100
  Plant response rating, Ryegrass, Italian: 5
[8]; 125 g ai/ha, scale of 0 to 100
  Plant response rating, Morningglory: 10
[8]; 16 g ai/ha, scale 0 to 100
  Plant response rating, Morningglory: 0
[8]; 31 g ai/ha, scale 0 to 100
  Plant response rating, Morningglory: 0
[8]; 62 g ai/ha, scale 0 to 100
  Plant response rating, Morningglory: 20
[9]; 125 g ai/ha, scale of 0 to 100
  Plant response rating, Nutsedge, Yellow: 20
[9]; 16 g ai/ha, scale 0 to 100
  Plant response rating, Nutsedge, Yellow: 0
[9]; 31 g ai/ha, scale 0 to 100
  Plant response rating, Nutsedge, Yellow: 0
[9]; 62 g ai/ha, scale 0 to 100
  Plant response rating, Nutsedge, Yellow: 0
[10]; 62 g ai/ha, scale of 0 to 100
  Plant response rating, Crabgrass, Large: 98
[10]; 125 g ai/ha, scale of 0 to 100
  Plant response rating, Crabgrass, Large: 98
[10]; 16 g ai/ha, scale 0 to 100
  Plant response rating, Crabgrass, Large: 65
[10]; 31 g ai/ha, scale 0 to 100
  Plant response rating, Crabgrass, Large: 85
Corn (Zea mays) [11]; 62 g ai/ha, scale of 0 to 100
  Plant response rating, Corn: 0
Corn (Zea mays) [11]; 125 g ai/ha, scale of 0 to 100
  Plant response rating, Corn: 5
Corn (Zea mays) [11]; 16 g ai/ha, scale 0 to 100
  Plant response rating, Corn: 0
Corn (Zea mays) [11]; 31 g ai/ha, scale 0 to 100
  Plant response rating, Corn: 0
[12]; 125 g ai/ha, scale of 0 to 100
  Plant response rating, Wheat: 10
[12]; 16 g ai/ha, scale 0 to 100
  Plant response rating, Wheat: 0
[12]; 31 g ai/ha, scale 0 to 100
  Plant response rating, Wheat: 0
[12]; 62 g ai/ha, scale 0 to 100
  Plant response rating, Wheat: 10
[13]; 125 g ai/ha, scale of 0 to 100
  Plant response rating, Oilseed Rape: 40
[13]; 16 g ai/ha, scale 0 to 100
  Plant response rating, Oilseed Rape: 0
[13]; 31 g ai/ha, scale 0 to 100
  Plant response rating, Oilseed Rape: 0
[13]; 62 g ai/ha, scale 0 to 100
  Plant response rating, Oilseed Rape: 10
Soybean (Glycine max) [14]; 16 g ai/ha
  Plant response rating, Soybean: 50
Soybean (Glycine max) [14]; 31 g ai/ha
  Plant response rating, Soybean: 65
Soybean (Glycine max) [14]; 62 g ai/ha
  Soybean plant response rating: 85
Soybean (Glycine max) [14]; 125 g ai/ha
  Soybean plant response rating: 85
[15]; 16 g ai/ha
  Plant response rating, Galium: 40
[15]; 31 g ai/ha
  Plant response rating, Galium: 70
[15]; 62 g ai/ha
  Galium plant response rating: 70
[15]; 125 g ai/ha
  Galium plant response rating: 80
[16]; 16 g ai/ha
  Plant response rating, Foxtail, Giant: 10
[16]; 31 g ai/ha
  Plant response rating, Foxtail, Giant: 10
[16]; 62 g ai/ha
  Foxtail, Giant plant response rating: 10
[16]; 125 g ai/ha
  Foxtail, Giant plant response rating: 25
[17]; 16 g ai/ha
  Plant response rating, Waterhemp: 85
[17]; 31 g ai/ha
  Plant response rating, Waterhemp: 90
[17]; 62 g ai/ha
  Waterhemp plant response rating: 90
[17]; 125 g ai/ha
  Waterhemp plant response rating: 95
Kochia (Kochia scoparia); 16 g ai/ha
  Plant response rating, Kochia: 75
Kochia (Kochia scoparia); 31 g ai/ha
  Plant response rating, Kochia: 85
Kochia (Kochia scoparia); 62 g ai/ha
  Kochia plant response rating: 90
Kochia (Kochia scoparia); 125 g ai/ha
  Kochia plant response rating: 98
[18]; 16 g ai/ha
  Plant response rating, Crabgrass, Large: 10
[18]; 31 g ai/ha
  Plant response rating, Crabgrass, Large: 10
[18]; 62 g ai/ha
  Crabgrass, Large plant response rating: 15
[18]; 125 g ai/ha
  Crabgrass, Large plant response rating: 25
Corn (Zea mays) [19]; 16 g ai/ha
  Plant response rating, Corn: 10
Corn (Zea mays) [19]; 31 g ai/ha
  Plant response rating, Corn: 15
Corn (Zea mays) [19]; 62 g ai/ha
  Corn plant response rating: 15
Corn (Zea mays) [19]; 125 g ai/ha
  Corn plant response rating: 20
[20]; 16 g ai/ha
  Plant response rating, Oilseed Rape: 60
[20]; 31 g ai/ha
  Plant response rating, Oilseed Rape: 80
[20]; 62 g ai/ha
  Oilseed Rape plant response rating: 80
[20]; 125 g ai/ha
  Oilseed Rape plant response rating: 95
